# According to patent US4935431A, “Substituted 7-amino-thienopyridine derivatives as gastric acid secretion inhibitors” (SmithKline Beckman Intercredit B.V., priority 1988, dated 1990):
# pIC50: −log10 of the molar value. Structures can show the parent of a compound that is named as a salt.
# Key:
# [1] = system: pentagastrin stimulated gastric acid secretion; experiment: Rat Lumen Perfused Stomach (Pentagastrin Stimulated Gastric Acid Secretion); assay type: in vivo; details: for ED50: iv, read-out: RAT GS ED50; for RAT GS % inhibition @ 10 μmol/kg: i.v.
# Source text: B. Rat Lumen Perfused Stomach (Pentagastrin Stimulated Gastric Acid Secretion)
# Using a modification of the procedure described by Ghosh & Schild (Br. J. Pharmacology, 13, 54, 1958), the compounds of the following examples were found on i.v. administration to cause an inhibition of pentagastrin stimulated gastric acid secretion as indicated in the following table. Results are given as % inhibition at 10 μmole/kg or ED50 (μM/kg): […]
# [2] = target: T1, H^+ K^+ ATPase (Sus scrofa, UniProt P19156); experiment: K^+ -stimulated ATPase activity in lyophilised gastric vesicles (H/K-ATPase); assay type: biochemical; details: lyophilised gastric vesicles from pig fundic mucosa, 37° C., pH 7.0, 30 minutes
# T1 construct: Lyophilised gastric vesicles were prepared from pig fundic mucosa; from tissue; host or cells: pig fundic mucosa (lyophilised gastric vesicles)
# Method: A. H^+ K^+ ATPase Activity The effects of a single high concentration (100 μM) of a compound of structure (I) on K^+ -stimulated ATPase activity in lyophilised gastric vesicles was determined. Preferred compounds of structure (I) were also tested over a range of concentrations to determine IC50 values. (i) Preparation of Lyonhilised Gastric Vesicles (H/K-ATPase) Lyophilised gastric vesicles were prepared from pig fundic mucosa after the method of Keeling et. al. (Biochem. Pharmacol., 34, 2967, 1985). (ii) K^+ -Stimulated ATPase Activity K^+ -stimulated ATPase activity was determined at 37° C. in the presence of the following: 10 mM Pipes/Tris buffer pH 7.0, 2 mM MgSO4, 1 mM KCl, 2 mM Na2 ATP and 3 μg protein/ml lyophilised gastric vesicles. After incubation for 30 minutes, the inorganic phosphate hydrolysed from ATP was determined by the method of Yoda and Hokin (Biochem. Biophys. Res. Commun. 40, 880, 1970). Compounds of structure (I) were dissolved in dimethylsulphoxide which up to the highest concentration used had no effect on K^+ -stimulated ATPase activity. The effect of the highest concentration of each compound of structure (I) on the recovery of a standard amount of inorganic phosphate was also determined.
# T1 sequence (P19156 2-1034 limits assumed): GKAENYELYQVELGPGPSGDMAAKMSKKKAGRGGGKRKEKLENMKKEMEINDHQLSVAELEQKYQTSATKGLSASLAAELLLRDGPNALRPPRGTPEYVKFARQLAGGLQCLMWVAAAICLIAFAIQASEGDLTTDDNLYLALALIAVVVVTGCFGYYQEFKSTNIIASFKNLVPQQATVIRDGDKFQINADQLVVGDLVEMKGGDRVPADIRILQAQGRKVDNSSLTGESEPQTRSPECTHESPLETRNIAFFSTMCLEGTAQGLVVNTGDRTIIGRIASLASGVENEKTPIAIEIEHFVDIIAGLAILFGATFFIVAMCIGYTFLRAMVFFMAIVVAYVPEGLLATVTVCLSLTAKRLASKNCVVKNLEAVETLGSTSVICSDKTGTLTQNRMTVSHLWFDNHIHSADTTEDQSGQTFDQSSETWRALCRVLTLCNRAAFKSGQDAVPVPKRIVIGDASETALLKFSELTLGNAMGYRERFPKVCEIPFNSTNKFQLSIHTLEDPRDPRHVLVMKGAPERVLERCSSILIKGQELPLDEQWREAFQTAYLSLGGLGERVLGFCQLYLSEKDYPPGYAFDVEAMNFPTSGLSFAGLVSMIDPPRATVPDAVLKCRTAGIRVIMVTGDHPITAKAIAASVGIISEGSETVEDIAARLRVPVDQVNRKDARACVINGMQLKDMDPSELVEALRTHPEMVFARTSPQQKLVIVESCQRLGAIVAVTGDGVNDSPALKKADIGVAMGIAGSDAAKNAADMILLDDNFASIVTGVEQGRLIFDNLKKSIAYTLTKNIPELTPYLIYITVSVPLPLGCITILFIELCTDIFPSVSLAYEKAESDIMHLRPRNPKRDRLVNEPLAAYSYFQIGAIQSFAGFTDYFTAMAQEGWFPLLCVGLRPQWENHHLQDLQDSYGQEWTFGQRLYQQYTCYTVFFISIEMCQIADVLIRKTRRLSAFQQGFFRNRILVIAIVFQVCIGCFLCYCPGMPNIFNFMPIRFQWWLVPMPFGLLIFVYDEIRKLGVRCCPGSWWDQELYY
# T1 sequence (P18434 whole entry partner): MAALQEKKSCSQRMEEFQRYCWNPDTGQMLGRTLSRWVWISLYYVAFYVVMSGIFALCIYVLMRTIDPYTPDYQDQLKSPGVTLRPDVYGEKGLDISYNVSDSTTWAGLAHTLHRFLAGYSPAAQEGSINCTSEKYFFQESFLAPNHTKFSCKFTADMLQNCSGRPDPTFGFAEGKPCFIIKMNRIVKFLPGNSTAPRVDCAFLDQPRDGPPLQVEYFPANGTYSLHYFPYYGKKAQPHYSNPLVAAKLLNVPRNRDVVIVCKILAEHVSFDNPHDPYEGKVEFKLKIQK
Compound,ED50 [1] [µmol/kg],pIC50 [2],RAT GS % inhibition @ 10 μmol/kg [1] [%]
"CCOC(=O)c1cnc2ccsc2c1Nc1ccccc1C [Example 3, Ethyl 7-(2-methylphenylamino)thieno[3,2-b]pyridine-6-carboxylate]",9.7,6.21,–
"CCCC(=O)c1cnc2ccsc2c1Nc1ccccc1C [Example 11, 6-Butyryl-7-(2-methylphenylamino)thieno[3,2-b]pyridine]",–,6.06,55
"CCOC(=O)c1cnc2c(C)csc2c1NCc1ccccc1 [Example 6, Ethyl 3-methyl-7-benzylaminothieno[3,2-b]pyridine-6-carboxylate]",–,–,31
"CCCC(=O)c1cnc2ccsc2c1Nc1ccccc1CCC [Example 14, 6-Butyryl-7-(2-propylphenylamino)thieno[3,2-b]pyridine hydrochloride]",–,5.92,–
"CCOC(=O)c1cnc2ccsc2c1NCc1ccccc1 [Example 4, Ethyl 7-benzylaminothieno[3,2-b]pyridine-6-carboxylate]",–,5.37,19
"CCCC(=O)c1cnc2c(OC)csc2c1Nc1ccccc1C [Example 9, 6-Butyryl-7-(2-methylphenylamino)-3-methoxythieno[3,2-b]pyridine]",–,4.89,–
"CCOC(=O)c1cnc2c(C)csc2c1Nc1ccccc1C [Example 5, Ethyl 3-methyl-7-(2-methylphenylamino)thieno[3,2-b]-pyridine-6-carboxylate]",11.2,–,–
"CCOC(=O)c1cnc2sccc2c1NCc1ccccc1 [Example 2, Ethyl 4-benzylaminothieno[2,3-b]pyridine-5-carboxylate]",–,5.01,13
"CCCC(=O)c1cnc2ccsc2c1Nc1ccc(O)cc1C [Example 16, 6-Butyryl-(4-hydroxy-2-methylphenylamino)thieno[3,2-b]-pyridine]",4.03,6.48,–
"CCCC(=O)c1cnc2ccsc2c1Nc1ccccc1CC [Example 13, 6-Butyryl-7-(2-ethylphenylamino)thieno[3,2-b]pyridine]",3.32,5.96,–
"CCCC(=O)c1cnc2ccsc2c1Nc1ccccc1C(C)C [Example 15, 6-Butyryl-7-(2-isopropylphenylamino)thieno[3,2-b]pyridine]",–,6.07,62
"CCOC(=O)c1cnc2sccc2c1Nc1ccccc1C [Example 1, Ethyl 4-(2-methylohenylamino)thieno[2,3-b]pyridine-5-carboxylate]",–,5.52,32
"CCCC(=O)c1cnc2ccsc2c1Nc1ccc(F)cc1C [Example 12, 6-Butyryl-7-(4-fluoro-2-methylphenylamino)thieno[3,2-b]-pyridine]",–,5.37,38
"CCOC(=O)c1cnc2c(OC)csc2c1Nc1ccccc1C [Example 7, Ethyl 3-methoxy-7-(2-methylohenylamino)thieno[3,2-b] pyridine-6-carboxylate]",–,4.68,–
